Assay results taken from PubChem BioAssay AID1845206 (Molecular Pharmacology Branch, DTP, NCI, 2023).
pIC50: −log10 of the molar value.

Test system: NCI-H1618 multicellular tumor spheroid viability
Assay: Anticancer human tumor NCI-H1618 cell line growth inhibition;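 also: spheroids exposed to agents for 7 days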
Conditions: for pIC50: curve of first compound; for viability, T/C: stronger effect = lower value
Procedure, shortened: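 Single agents and combinations were tested on spheroids built from tumor cells plus HUVEC and hMSC, at half-log dilutions starting at or near clinical Cmax, else 10 microM; final DMSO 0.25% (v/v).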

[1] = second compound 30 pM, first compound 0.0316 µM
[2] = second compound 30 pM, first compound 0.1 µM
[3] = second compound 30 pM, first compound 0.316 µM
[4] = second compound 30 pM, first compound 1 µM
[5] = second compound 30 pM, first compound 3.16 µM
[6] = second compound 30 pM, first compound 10 µM
[7] = second compound 94.9 pM, first compound 0.0316 µM
[8] = second compound 94.9 pM, first compound 0.1 µM
[9] = second compound 94.9 pM, first compound 0.316 µM
[10] = second compound 94.9 pM, first compound 1 µM
[11] = second compound 94.9 pM, first compound 3.16 µM
[12] = second compound 94.9 pM, first compound 10 µM
[13] = second compound 0.0003 µM, first compound 0.0316 µM
[14] = second compound 0.0003 µM, first compound 0.1 µM
[15] = second compound 0.0003 µM, first compound 0.316 µM
[16] = second compound 0.0003 µM, first compound 1 µM
[17] = second compound 0.0003 µM, first compound 3.16 µM
[18] = second compound 0.0003 µM, first compound 10 µM
[19] = second compound 0.000949 µM, first compound 0.0316 µM
[20] = second compound 0.000949 µM, first compound 0.1 µM
[21] = second compound 0.000949 µM, first compound 0.316 µM
[22] = second compound 0.000949 µM, first compound 1 µM
[23] = second compound 0.000949 µM, first compound 3.16 µM
[24] = second compound 0.000949 µM, first compound 10 µM
[25] = second compound 0.003 µM, first compound 0.0316 µM
[26] = second compound 0.003 µM, first compound 0.1 µM
[27] = second compound 0.003 µM, first compound 0.316 µM
[28] = second compound 0.003 µM, first compound 1 µM
[29] = second compound 0.003 µM, first compound 3.16 µM
[30] = second compound 0.003 µM, first compound 10 µM

SMILES | pIC50 (second compound 30 pM) | pIC50 (second compound 94.9 pM) | pIC50 (second compound 0.0003 µM) | pIC50 (second compound 0.000949 µM) | pIC50 (second compound 0.003 µM) | viability, T/C [1] [%] | viability, T/C [2] [%] | viability, T/C [3] [%] | viability, T/C [4] [%] | viability, T/C [5] [%] | viability, T/C [6] [%] | viability, T/C [7] [%] | viability, T/C [8] [%] | viability, T/C [9] [%] | viability, T/C [10] [%] | viability, T/C [11] [%] | viability, T/C [12] [%] | viability, T/C [13] [%] | viability, T/C [14] [%] | viability, T/C [15] [%] | also measured
CC(C)n1c(=O)n(C)c2cnc3cc(F)c(-c4ccc(OCCCN5CCCCC5)nc4)cc3c21 + COc1cc2c(cc1O)CCNC21CSC2c3c(OC(C)=O)c(C)c4c(c3C(COC1=O)N1C(O)C3Cc5cc(C)c(OC)c(O)c5C(C21)N3C)OCO4 | 5.14 | > 7.50 | > 7.50 | > 7.50 | > 7.50 | 98.6 | 66.3 | 83 | 103 | 70 | 42.2 | 46.2 | 13.4 | 36.4 | 42.7 | 34.5 | 15.9 | 3.13 | 2.8 | 4.96 | viability, T/C [16]: 7.62%; viability, T/C [17]: 9.67%; viability, T/C [18]: 7.88%; viability, T/C [19]: 5.33%; viability, T/C [20]: 5.23%; viability, T/C [21]: 5.71%; viability, T/C [22]: 5.14%; viability, T/C [23]: 5.57%; viability, T/C [24]: 8.28%; viability, T/C [25]: 5.09%; viability, T/C [26]: 4.6%; viability, T/C [27]: 4.56%; viability, T/C [28]: 5.67%; viability, T/C [29]: 3.66%; viability, T/C [30]: 5.04%
CC1COCCN1c1cc(-c2ccnn2C)c2ccnc(-c3ccn[nH]3)c2n1 (stereo not given) + COc1cc2c(cc1O)CCNC21CSC2c3c(OC(C)=O)c(C)c4c(c3C(COC1=O)N1C(O)C3Cc5cc(C)c(OC)c(O)c5C(C21)N3C)OCO4 | > 7.50 | > 7.50 | > 7.50 | > 7.50 | > 7.50 | 41 | 8.59 | 2.6 | 1.69 | 1.44 | 1.07 | 4.76 | 7.64 | 1.66 | 2.1 | 0.97 | 1.13 | 7.32 | 1.52 | 2.44 | viability, T/C [16]: 1.22%; viability, T/C [17]: 1.2%; viability, T/C [18]: 1.07%; viability, T/C [19]: 1.86%; viability, T/C [20]: 2.16%; viability, T/C [21]: 1.58%; viability, T/C [22]: 1.26%; viability, T/C [23]: 1.11%; viability, T/C [24]: 1.22%; viability, T/C [25]: 1.5%; viability, T/C [26]: 1.77%; viability, T/C [27]: 2.41%; viability, T/C [28]: 2.07%; viability, T/C [29]: 1.2%; viability, T/C [30]: 1.35%
COc1cc(C)[nH]c(=O)c1CN1CCc2c(Cl)cc(C(OC)C3COC3)c(Cl)c2C1=O (stereo not given) + COc1cc2c(cc1O)CCNC21CSC2c3c(OC(C)=O)c(C)c4c(c3C(COC1=O)N1C(O)C3Cc5cc(C)c(OC)c(O)c5C(C21)N3C)OCO4 | < 5.00 | 6.28 | > 7.50 | > 7.50 | > 7.50 | 73.8 | 74.9 | 61.7 | 73.8 | 74.4 | 67.9 | 86.8 | 65.9 | 48.3 | 57.5 | 31.9 | 38.4 | 14.9 | 19.3 | 5.64 | viability, T/C [16]: 2.68%; viability, T/C [17]: 1.81%; viability, T/C [18]: 3.33%; viability, T/C [19]: 5.55%; viability, T/C [20]: 2.33%; viability, T/C [21]: 3.62%; viability, T/C [22]: 3.05%; viability, T/C [23]: 3.08%; viability, T/C [24]: 3.38%; viability, T/C [25]: 3.07%; viability, T/C [26]: 2.73%; viability, T/C [27]: 3.33%; viability, T/C [28]: 2.29%; viability, T/C [29]: 1.94%; viability, T/C [30]: 2.51%
COc1ccc([C@@H](O)c2cc(-c3ncnc4cc(N5CCOCC5)ccc34)c(F)cc2Cl)nn1 + COc1cc2c(cc1O)CCNC21CSC2c3c(OC(C)=O)c(C)c4c(c3C(COC1=O)N1C(O)C3Cc5cc(C)c(OC)c(O)c5C(C21)N3C)OCO4 | 5.43 | 5.84 | > 7.50 | > 7.50 | > 7.50 | 94.5 | 103 | 104 | 97.6 | 55.8 | 15 | 75.4 | 82.7 | 55.5 | 65.7 | 32.6 | 3.93 | 14.8 | 29.8 | 13.9 | viability, T/C [16]: 3.02%; viability, T/C [17]: 3.64%; viability, T/C [18]: 0.49%; viability, T/C [19]: 4.34%; viability, T/C [20]: 4.36%; viability, T/C [21]: 3.33%; viability, T/C [22]: 3.78%; viability, T/C [23]: 5.45%; viability, T/C [24]: 0.45%; viability, T/C [25]: 2.98%; viability, T/C [26]: 4.77%; viability, T/C [27]: 4.99%; viability, T/C [28]: 3.43%; viability, T/C [29]: 2.67%; viability, T/C [30]: 1.04%
